From ChEMBL document CHEMBL1201862, “PubChem BioAssay data set” (2004)
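48-hour exposure; five concentrations; linearly interpolated endpoints. GI50: concentration for 50% inhibition of growth.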 Activity calls are given as the source filed them. No stated cut-off is given here; in the data, active = GI50 up to about 1.1 µM and inactive = higher.

Tests used:
Assay in all cases: inhibition of tumour cell growth, NCI panel, 48 h
[1] = test system: SNB-75
[2] = test system: A498
[3] = test system: SF-268
[4] = test system: OVCAR-8
[5] = test system: T47D
[6] = test system: HOP-62
[7] = test system: MCF7
[8] = test system: NCI-H226
[9] = test system: CCRF-CEM
[10] = test system: MDA-N
[11] = test system: NCI/ADR-RES
[12] = test system: MDA-MB-231
[13] = test system: OVCAR-3
[14] = test system: UACC-62
[15] = test system: SF-539
[16] = test system: UO-31
[17] = test system: HCT-116
[18] = test system: SK-MEL-2
[19] = test system: HCC 2998
[20] = test system: 786-0
[21] = test system: SW-620
[22] = test system: K562
[23] = test system: RPMI-8226
[24] = test system: MOLT-4
[25] = test system: SNB-19
[26] = test system: OVCAR-5
[27] = test system: SK-OV-3
[28] = test system: U-251
[29] = test system: DU-145
[30] = test system: SK-MEL-28
[31] = test system: BT-549
[32] = test system: NCI-H460
[33] = test system: ACHN
[34] = test system: M14
[35] = test system: KM12
[36] = test system: MDA-MB-435
[37] = test system: HT-29
[38] = test system: Hs-578T
[39] = test system: UACC-257
[40] = test system: SF-295
[41] = test system: RXF 393
[42] = test system: HCT-15
[43] = test system: A549
[44] = test system: Malme-3M
[45] = test system: NCI-H23
[46] = test system: OVCAR-4
[47] = test system: SN12C
[48] = test system: CAKI-1
[49] = test system: PC-3
[50] = test system: COLO 205
[51] = test system: EKVX
[52] = test system: IGROV-1
[53] = test system: TK-10
[54] = test system: HOP-92
[55] = test system: NCI-H522
[56] = test system: SK-MEL-5
[57] = test system: LOX IMVI
[58] = test system: SR

## C(#C[C@@]12CCC[C@@H]1N(Cc1ccccc1)CO2)c1ccc2c(c1)OCO2
[1]
  GI50: > 100 µM (inactive)
[2]
  GI50: > 100 µM (inactive)
[3]
  GI50: > 100 µM (inactive)
[4]
  GI50: > 100 µM (inactive)
[5]
  GI50: > 100 µM (inactive)
[6]
  GI50: > 100 µM (inactive)
[7]
  GI50: > 100 µM (inactive)
[8]
  GI50: > 100 µM (inactive)
[9]
  GI50: > 100 µM (inactive)
[10]
  GI50: > 100 µM (inactive)
[11]
  GI50: > 100 µM (inactive)
[12]
  GI50: > 100 µM (inactive)
[13]
  GI50: > 100 µM (inactive)
[14]
  GI50: > 100 µM (inactive)
[15]
  GI50: > 100 µM (inactive)
[16]
  GI50: > 100 µM (inactive)
[17]
  GI50: > 100 µM (inactive)
[18]
  GI50: > 100 µM (inactive)
[19]
  GI50: > 100 µM (inactive)
[20]
  GI50: > 100 µM (inactive)
[21]
  GI50: > 100 µM (inactive)
[22]
  GI50: > 100 µM (inactive)
[23]
  GI50: > 100 µM (inactive)
[24]
  GI50: > 100 µM (inactive)
[25]
  GI50: > 100 µM (inactive)
[26]
  GI50: > 100 µM (inactive)
[27]
  GI50: > 100 µM (inactive)
[28]
  GI50: > 100 µM (inactive)
[29]
  GI50: > 100 µM (inactive)
[30]
  GI50: > 100 µM (inactive)
[31]
  GI50: > 100 µM (inactive)
[32]
  GI50: > 100 µM (inactive)
[33]
  GI50: > 100 µM (inactive)
[34]
  GI50: > 100 µM (inactive)
[35]
  GI50: > 100 µM (inactive)
[36]
  GI50: > 100 µM (inactive)
[37]
  GI50: > 100 µM (inactive)
[38]
  GI50: 65 µM (inactive)
[39]
  GI50: > 100 µM (inactive)
[40]
  GI50: > 100 µM (inactive)
[41]
  GI50: > 100 µM (inactive)
[42]
  GI50: > 100 µM
[43]
  GI50: > 100 µM (inactive)
[44]
  GI50: > 100 µM (inactive)
[45]
  GI50: > 100 µM (inactive)
[46]
  GI50: > 100 µM (inactive)
[47]
  GI50: > 100 µM (inactive)
[48]
  GI50: > 100 µM (inactive)
[49]
  GI50: > 100 µM (inactive)
[50]
  GI50: > 100 µM (inactive)
[51]
  GI50: > 100 µM (inactive)

## Cc1ncc(CSC(=N)N)n1Cc1ccccc1
[2]
  GI50: > 100 µM (inactive)
[3]
  GI50: > 100 µM (inactive)
[4]
  GI50: > 100 µM (inactive)
[5]
  GI50: 26.1 µM (inactive)
[52]
  GI50: > 100 µM (inactive)
[6]
  GI50: > 100 µM (inactive)
[7]
  GI50: 39.5 µM (inactive)
[8]
  GI50: > 100 µM (inactive)
[53]
  GI50: 25.8 µM (inactive)
[10]
  GI50: 38.2 µM (inactive)
[11]
  GI50: > 100 µM (inactive)
[12]
  GI50: > 100 µM (inactive)
[13]
  GI50: 51.6 µM (inactive)
[14]
  GI50: > 100 µM (inactive)
[15]
  GI50: 43.6 µM (inactive)
[16]
  GI50: > 100 µM (inactive)
[17]
  GI50: 42.2 µM (inactive)
[18]
  GI50: > 100 µM (inactive)
[20]
  GI50: 46 µM (inactive)
[21]
  GI50: 45.5 µM (inactive)
[22]
  GI50: 66.8 µM (inactive)
[23]
  GI50: 27.5 µM (inactive)
[25]
  GI50: > 100 µM (inactive)
[26]
  GI50: > 100 µM (inactive)
[27]
  GI50: > 100 µM (inactive)
[28]
  GI50: > 100 µM (inactive)
[29]
  GI50: 22.5 µM (inactive)
[30]
  GI50: > 100 µM (inactive)
[54]
  GI50: > 100 µM (inactive)
[31]
  GI50: > 100 µM (inactive)
[32]
  GI50: 88.3 µM (inactive)
[33]
  GI50: > 100 µM (inactive)
[34]
  GI50: 48.1 µM (inactive)
[35]
  GI50: > 100 µM (inactive)
[36]
  GI50: 30.7 µM (inactive)
[37]
  GI50: 55.8 µM (inactive)
[55]
  GI50: 24.7 µM (inactive)
[38]
  GI50: 95.7 µM (inactive)
[39]
  GI50: 29.7 µM (inactive)
[40]
  GI50: 63.7 µM (inactive)
[41]
  GI50: 7.78 µM (inactive)
[42]
  GI50: > 100 µM
[43]
  GI50: > 100 µM (inactive)
[44]
  GI50: 54.5 µM (inactive)
[56]
  GI50: 82.6 µM (inactive)
[45]
  GI50: 65.8 µM (inactive)
[46]
  GI50: 83 µM (inactive)
[47]
  GI50: 43.5 µM (inactive)
[48]
  GI50: 84.1 µM (inactive)
[49]
  GI50: > 100 µM (inactive)
[50]
  GI50: 33.1 µM (inactive)
[51]
  GI50: 96.8 µM (inactive)

## Cc1c/c(=N\c2ccc3c(c2)c(N)cc(C)[n+]3C)nc(N)n1C
[1]
  GI50: > 100 µM (inactive)
[2]
  GI50: > 100 µM (inactive)
[3]
  GI50: > 100 µM (inactive)
[4]
  GI50: 86.3 µM (inactive)
[5]
  GI50: > 100 µM (inactive)
[52]
  GI50: > 100 µM (inactive)
[6]
  GI50: 87.7 µM (inactive)
[7]
  GI50: > 100 µM (inactive)
[53]
  GI50: > 100 µM (inactive)
[9]
  GI50: > 100 µM (inactive)
[10]
  GI50: > 100 µM (inactive)
[11]
  GI50: > 100 µM (inactive)
[12]
  GI50: > 100 µM (inactive)
[13]
  GI50: > 100 µM (inactive)
[57]
  GI50: > 100 µM (inactive)
[14]
  GI50: > 100 µM (inactive)
[15]
  GI50: > 100 µM (inactive)
[16]
  GI50: > 100 µM (inactive)
[17]
  GI50: > 100 µM (inactive)
[18]
  GI50: > 100 µM (inactive)
[20]
  GI50: > 100 µM (inactive)
[21]
  GI50: > 100 µM (inactive)
[22]
  GI50: > 100 µM (inactive)
[23]
  GI50: > 100 µM (inactive)
[24]
  GI50: > 100 µM (inactive)
[25]
  GI50: > 100 µM (inactive)
[26]
  GI50: > 100 µM (inactive)
[27]
  GI50: > 100 µM (inactive)
[28]
  GI50: 88.3 µM (inactive)
[58]
  GI50: > 100 µM (inactive)
[29]
  GI50: > 100 µM (inactive)
[30]
  GI50: > 100 µM (inactive)
[54]
  GI50: > 100 µM (inactive)
[31]
  GI50: > 100 µM (inactive)
[32]
  GI50: > 100 µM (inactive)
[33]
  GI50: > 100 µM (inactive)
[34]
  GI50: > 100 µM (inactive)
[35]
  GI50: > 100 µM (inactive)
[36]
  GI50: > 100 µM (inactive)
[37]
  GI50: > 100 µM (inactive)
[55]
  GI50: > 100 µM (inactive)
[38]
  GI50: > 100 µM (inactive)
[39]
  GI50: > 100 µM (inactive)
[40]
  GI50: > 100 µM (inactive)
[41]
  GI50: > 100 µM (inactive)
[42]
  GI50: > 100 µM
[43]
  GI50: > 100 µM (inactive)
[44]
  GI50: > 100 µM (inactive)
[56]
  GI50: > 100 µM (inactive)
[45]
  GI50: > 100 µM (inactive)
[46]
  GI50: > 100 µM (inactive)
[47]
  GI50: 92.7 µM (inactive)
[48]
  GI50: > 100 µM (inactive)
[49]
  GI50: > 100 µM (inactive)
[50]
  GI50: > 100 µM (inactive)
[51]
  GI50: > 100 µM (inactive)
